Experimental data from patent publication US6949654B2, “N-alkyl-N-phenylhydroxylamine compounds containing metal chelating groups, their preparation and their therapeutic uses” (Sam-Sung Electronics Co., Ltd., priority 2001, dated 2005).

What was measured:
[1] = test system: soybean phosphatidylcholine liposome; assay: Inhibition of lipid peroxidation of a multilayer liposome (TBA method); assay type: biochemical; conditions: lipid peroxidation of liposome started with FeCl2, 37° C. 15 minutes, absorbance at 532 nm; read-out: Inhibitor Concentration (IC50)
Protocol: The compounds of the present invention were tested for antioxidant effect in terms of the repression of the radical chain reaction of a multilayer liposome.
The liposome was prepared as followings: 30 mg of commercially available soybean phosphatidylcholine (PC, Sigma Chemical Co., U.S.A.) was dissolved in 1 mL of ethanol, and 200 μL of the ethanol/PC solution was added to 10 mL of 10 mM Tris buffer including 50 mM NaCl (pH 7.0) with stirring.
The ability of a compound to inhibit oxidation of the liposome was evaluated as followings: To 400 μL of the liposomes were added the test compound (in buffer or ethanol) and histidine-FeCl3 (167:33 μM final). Oxidation was initiated by the addition of FeCl2 (33 μM final prepared in nitrogen purged water). The mixtures was shaken at 37° C. for 15 minutes. Thereafter, tubes were treated with 1 mL of 0.67% thiobabituric acid (TBA):10% trichloroacetic acid (2:1, v/v) in 0.25 N HCl solution, containing 1.5% (v/v) t-butylhydroxytoluene (BHT) to terminate oxidation. The aliquots were heated to 100° C. for 20 minutes. After ice cooling, 1 mL of chloroform was added to 1 mL supernatant from tubes and tubes were centrifuged. The absorbances of the resulting supernatant were measured at 532 nm (see: Table 1 below).

[2] = even in the presence of an excess of glutathione (GSH); cited from earlier work
rats = conditions: oral administration; cited from earlier work
[3] = test system: ischemic neuronal degeneration; assay: Protection of cell damage by ischemia (in vivo); set-up: species or system Mongolian gerbils (Meriones unguiculatus); conditions: 60 mg/kg P.O. 30 minutes after ischemic injury (post-treated), 5 min carotid occlusion, 4 days reperfusion, hippocampus
Protocol: Male Mongolian gerbils (Meriones unguiculatus) weighing 80-88 g were used in the present study. Each animal was medicated P.O. with vehicle, Ebselen or various test compounds (60 mg/kg in 10% DMSO), after 30 minutes ischemic injury, respectively. 20 animals were allotted into every group. The animals were placed under general anesthesia with a mixture of 2.5% isoflurane in 33% oxygen and 67% nitrous oxide. A midline ventral incision was made in the neck. Both common carotid arteries were isolated, freed of nerve fibers, and occluded using nontraumatic aneurysm clips. Complete interruption of blood flow was confirmed by observing the central artery in eyeballs using ophthalmoscope. After five minutes of occlusion, the aneurysm clips were removed from both common carotid arteries. Restoration of blood flow (reperfusion) was observed directly under the microscope. Sham-operated controls were subjected to the same surgical procedures except that common carotid arteries were not occluded. Body temperature was monitored and maintained at 37° C.±0.5° C. during surgery and during the immediate postoperative period until the animals recovered fully from anesthesia. […]
Images of staining in the hippocampus of each animal were captured with an Applescanner. […] All data obtained from the quantitative data were analyzed using one-way ANOVA to determine statistical significance. […]

mice = conditions: oral administration; cited from earlier work
[4] = Acute toxicity LD50 in rats; conditions: rat, in vivo

IC50 [1]	Molecule	protective effect against ischemic neuronal degeneration [3]	further results
11.1 µM	4-[N-(tert-butyl)-N-hydroxyamino]-N-pyridin-2-yl-methyl-benzamide [Example 3]		
	O=c1c2ccccc2[se]n1-c1ccccc1 [Ebselen]	59%	solubility in water [2]: very little soluble in water; LD50 (rats): ≥ 6,810 mg/kg; LD50 (mice): ≥ 6,810 mg/kg
4.3 µM	CC(C)(C)N(O)c1ccc(C(=O)Nc2ccccn2)cc1 [Example 2, 4-[N-(tert-butyl)-N-hydroxyamino]-N-pyridin-2-yl-benzamide]		
61.9 µM	CC(C)(C)N(O)c1ccc(C(=O)Nc2ccc(O)c3ncccc23)cc1 [Example 4, 4-[N-(tert-butyl)-N-hydroxyamino]-N-(8-hydroxyquinolin-5-yl)-benzamide]		
10.2 µM	Cc1c(C)c2c(c(C)c1O)CCC(C)(C(=O)O)O2 (stereo not drawn) [Trolox, reference compound]		

Molecule	IC50 [1]	protective effect against ischemic neuronal degeneration [3]	further results
CC(C)(C)N(O)c1ccc(C(=O)Nc2nccs2)cc1 [Example 1, 4-[N-(tert-butyl)-N-hydroxyamino]-N-thiazol-2-yl-benzamide]	1.44 µM	81%	LD50 ([4]; ip, intraperitoneal administration in rats): ≥ 750 mg/kg; LD50 ([4]; oral administration in rats): ≥ 7000 mg/kg
